pKi: −log10 of the molar value. Like-named read-outs stand apart in the source and are kept apart here. *1 amine or outer side, *2 acyl side, *3 side chain or, on linkers, in order; H or OH if unused. Where a SMILES comes first, the peptide text is derived from it. Bridges are numbered along the chain shown (N, C = ends). [ ]: non-standard residue; d: D form. Trp(4-F) = N[C@@H](Cc1c[nH]c2cccc(F)c12)C(=O)O; Trp(7-Me) = Cc1cccc2c(C[C@H](N)C(=O)O)c[nH]c12; 2Nal = N[C@@H](Cc1ccc2ccccc2c1)C(=O)O; AEF = NCCOc1ccc(C[C@H](N)C(=O)O)cc1; X1 = O=C(Cc1ccc(CN[*:1])cc1)[*:2]; αMeL = CC(C)C[C@](C)(N)C(=O)O; CH2COCH2 = O=C(C[*:1])C[*:2]; 3Amb = NCc1cccc(C(=O)O)c1; 4Amb = NCc1ccc(C(=O)O)cc1; Dab = NCC[C@H](N)C(=O)O; βAla = NCCC(=O)O
Target: T1, human IL-23R (Homo sapiens, UniProt Q5VWK5)
T1 construct: UniProtKB—Q5VWK5, amino acids 22-629; secretion signal of the plasmid (Promega N1371); expressed in transfected cells
T1 sequence (Q5VWK5 22-629): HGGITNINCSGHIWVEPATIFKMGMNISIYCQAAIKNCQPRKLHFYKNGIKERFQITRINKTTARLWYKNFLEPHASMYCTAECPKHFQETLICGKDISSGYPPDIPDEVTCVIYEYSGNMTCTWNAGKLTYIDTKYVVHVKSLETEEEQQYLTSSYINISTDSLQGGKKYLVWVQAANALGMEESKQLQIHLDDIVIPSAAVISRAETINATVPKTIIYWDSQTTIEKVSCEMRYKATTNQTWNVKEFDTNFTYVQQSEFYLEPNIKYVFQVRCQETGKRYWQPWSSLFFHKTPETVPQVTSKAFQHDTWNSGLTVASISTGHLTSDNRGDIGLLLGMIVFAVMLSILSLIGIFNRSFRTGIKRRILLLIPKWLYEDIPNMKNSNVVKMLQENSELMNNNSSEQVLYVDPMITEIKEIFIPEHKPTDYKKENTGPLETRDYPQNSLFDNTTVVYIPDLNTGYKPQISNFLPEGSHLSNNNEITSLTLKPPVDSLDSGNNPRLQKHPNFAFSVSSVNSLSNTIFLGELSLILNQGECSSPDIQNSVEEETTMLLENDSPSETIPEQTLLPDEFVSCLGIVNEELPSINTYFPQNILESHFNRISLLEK
Test: Binding assay (NanoBRET displacement of fluorophore-labelled reference compound) for estimating binding affinity to human IL-23R
From the text: Binding Assay for Estimating Binding Affinity of Compounds to Human IL-23R
The compound binding affinity for IL-23R was estimated by the ability of compounds to displace a fluorophore-labelled reference compound from the human IL-23R. The assay principle relies on Bioluminescence Resonance Energy Transfer (BRET) between a fluorophore-labelled reference compound binding to the IL-23R part of a fusion protein consisting of the IL-23R fused to a Nanoluc luciferase enzyme (Nanoluc). The Nanoluc is placed in the N-terminus in close proximity to the binding domain of the ligand. Upon close proximity between the fluorophore of the fluorophore-labelled compound and the Nanoluc of the fusion protein, bioluminescence energy generated from conversion of a Nanoluc substrate, is transferred to the fluorophore resulting in an increase in BRET. In presence of an unlabelled compound, the unlabelled compound displaces the fluorophore-labelled peptide from its binding site resulting in a decrease in BRET. The concentration for which half of the fluorophore-labelled peptide is displaced by the unlabelled compound depends on the affinity of the compound for the IL-23R, and is termed the IC50 concentration. An estimated affinity (K) of the unlabelled compound for the IL-23R may be calculated using the Cheng-Prussov equation, which takes into account the concentration of the fluorophore-labelled compound used, and the affinity of the fluorophore-labelled compound for IL-23R.
The plasmid also contained a gene to confer resistance for the antibiotic hygromycin. A cell line stably expressing the Nluc-IL23R fusion protein was generated by transfection of HEK293 cells with the expression plasmid and selected with hygromycin for 3 weeks in Growth medium consisting of DMEM w/Glutamax-I containing, 10% V/V FBS, 1% V/V P/S, 1 mM Sodium Pyruvate, and 1×NEAA, and 0.3 mg/mL hygromycin. The remaining cells were propagated and considered a stable expressing Nluc-IL23R fusion protein pool clone.
Cells expressing the Nluc-IL23R fusion protein were expanded in Growth medium and membranes prepared by homogenization of a cell pellet from 18 T175 flasks (4° C. in subsequent steps). The cell pellet was lysed Tris 10 mM, 7.5, 1 mM EDTA and protease inhibitors (Complete, Roche) and homogenized using a 15 mL glass-dounce by 50 strokes. The homogenate was spun at spin @1500 rpm for 10 min, the supernatant transferred to SV-34 tubes and spun at 40000 g for 20 min at 4° C. to pellet the crude membranes. The supernatant was then removed, the pellet resuspended in 5 mL buffer containing 50 mM HEPES pH 7.4, 5 mM EGTA, and 5 mM MgCl2, and homogenized. Aliquots of the resuspended and homogenized membranes containing the Nluc-IL23R fusion protein were stored at −80° C. until use.
The plate was sealed with light impermeable plate seals, and incubated on a orbital shaker 400 rpm for 2 hours at room temperature. To determine the BRET ratio, the plate seal was removed and 25 μL of the Nanoluc substrate (Promega N1572) diluted 1:500 was added to each well and incubated for 1-2 minutes on an orbital shaker at 400 rpm. […] The BRET ratio was calculated as the fluorescence from the TAMRA/nanoluc bioluminescence. The IC50 for each compound was determined by computer-aided curve fitting using a 4-parameter logistic (4PL) non-linear model.

[1] = Table 3-1, read-out: Ki hIL-23R

| pKi [1] | Structure (SMILES) | also measured |
| --- | --- | --- |
|  | CC(=O)N[C@@H](CC(=O)O)C(=O)N[C@H]1CSCC(=O)CSC[C@@H](C(=O)N[C@@H](CCC(=O)O)C(=O)N[C@@H](CC(N)=O)C(=O)NCC(N)=O)NC(=O)[C@](C)(CC(C)C)NC(=O)[C@H](Cc2c[nH]c3ccccc23)NC(=O)[C@H](Cc2c[nH]c3ccccc23)NC(=O)[C@@H]2CSCC(=O)CSC[C@H](NC(=O)[C@H](CCC(N)=O)NC1=O)C(=O)N[C@@H](Cc1c[nH]c3ccccc13)C(=O)N[C@@H](CCC(N)=O)C(=O)N2 [Compound 64, [Ac]-DC(1a)QC(2a)WQC(2a)WW[2-Me-Leu]C(1a)ENG-[NH2]] (Ac-DCQCWQCWW[αMeL]CENG-NH2; linker 2-11, 4-7 via CH2COCH2) | pKi: < 6.00 |
|  | CC(C)C[C@]1(C)NC(=O)[C@H](Cc2ccc3ccccc3c2)NC(=O)[C@H](Cc2ccc(OCCN)cc2)NC(=O)[C@@H]2CSCC(=O)CSC[C@H](NC(=O)[C@H](CO)NC(=O)c3ccc(cc3)CNC(=O)CC[C@@H](C(=O)N[C@@H](CCCNC(=N)N)C(N)=O)NC1=O)C(=O)N[C@@H](Cc1c[nH]c3ccccc13)C(=O)N[C@@H](CCC(N)=O)C(=O)N2 [Compound 49, [(4-Aminomethyl)benzoyl](1c)*SC(2a)WQC(2a)[Y(2-aminoethoxy)][2-Nal][2-Me-Leu]E(1c)R-[NH2]] ([4Amb]SCWQC[AEF][2Nal][αMeL]ER-NH2; linker 3-6 via CH2COCH2; lactam N-10) | pKi (Table 2-10b, read-out: Ki IL-23R): 8.94 |
| 9.31 | Cc1cccc2c(C[C@@H]3NC(=O)[C@@H]4CSCC(=O)CSC[C@H](NC(=O)[C@H](CCC(N)=O)NC3=O)C(=O)N[C@@H](Cc3ccc(OCCN)cc3)C(=O)N[C@@H](Cc3ccc5ccccc5c3)C(=O)N[C@@](C)(CC(C)C)C(=O)N[C@H](C(=O)N[C@@H](CCCNC(=N)N)C(N)=O)CCC(=O)NCc3cccc(c3)C(=O)N[C@@H](CO)C(=O)N4)c[nH]c12 [Compound 70, [(3-Aminomethyl)benzoyl](1c)*SC(2a)[7-Me-Trp]QC(2a)[Y(2-aminoethoxy)][2-Nal][2-Me-Leu]E(1c)R-[NH2]] ([3Amb]SC[Trp(7-Me)]QC[AEF][2Nal][αMeL]ER-NH2; linker 3-6 via CH2COCH2; lactam N-10) |  |
| 9.52 | CC(C)C[C@]1(C)NC(=O)[C@H](Cc2ccc3ccccc3c2)NC(=O)[C@H](Cc2ccc(OCCN)cc2)NC(=O)[C@@H]2CSCC(=O)CSC[C@H](NC(=O)[C@H](CO)NC(=O)Cc3ccc(cc3)CNC(=O)CC[C@@H](C(=O)NCCC(N)=O)NC1=O)C(=O)N[C@@H](Cc1c[nH]c3ccccc13)C(=O)N[C@@H](CCC(N)=O)C(=O)N2 [Compound 119, [4-Aminomethyl-phenylacetyl](1c)*SC(2a)WQC(2a)[Y(2-aminoethoxy)][2-Nal][2-Me-Leu]E(1c)[3-Aminopropanoyl]-[NH2]] ([X1]SCWQC[AEF][2Nal][αMeL]E[βAla]-NH2; linker 3-6 via CH2COCH2; lactam N-10) |  |
| 9.14 | CC(C)C[C@]1(C)NC(=O)[C@H](Cc2ccc3ccccc3c2)NC(=O)[C@H](Cc2ccc(OCCN)cc2)NC(=O)[C@@H]2CCNC(=O)CC[C@H](NC(=O)[C@H](CO)NC(=O)Cc3ccc(cc3)CNC(=O)CC[C@@H](C(=O)N[C@@H](CCN)C(N)=O)NC1=O)C(=O)N[C@@H](Cc1c[nH]c3cccc(F)c13)C(=O)N[C@@H](CCC(N)=O)C(=O)N2 [Compound 138, [4-Aminomethyl-phenylacetyl](1c)*SE(2c)[4-F-Trp]Q[Dab](2c)[Y(2-aminoethoxy)][2-Nal][2-Me-Leu]E(1c)[Dab]-[NH2]] ([X1]SE[Trp(4-F)]Q[Dab][AEF][2Nal][αMeL]E[Dab]-NH2; lactam 3-6, N-10) |  |
|  | CC(C)C[C@]1(C)NC(=O)[C@H](Cc2c[nH]c3ccccc23)NC(=O)[C@H](Cc2c[nH]c3ccccc23)NC(=O)[C@@H]2CSCC(=O)CSC[C@H](NC(=O)[C@H]([C@@H](C)O)NC(=O)[C@@H](NC(=O)CN)CSCC(=O)CSC[C@@H](C(=O)N[C@@H](CO)C(N)=O)NC1=O)C(=O)N[C@@H](Cc1c[nH]c3ccccc13)C(=O)N[C@@H](CCC(=O)O)C(=O)N2 (single isomer, unassigned) [I5 (isomer 3), H-GC(1a)TC(2a)WEC(2a)WW[2-Me-Leu]C(1a)S-[NH2], reference compound] | potency for IL-23R (in words) (in comparison with Protagonist's Compound C): lower potency |
